Source: PubChem BioAssay (NCI)
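Growth conditions: 96-well plates. Treatment: test compound, 48 hours, 5 concentrations. Analysis: linear interpolation between bracketing concentrations; unreached endpoints set to highest concentration. The concentration for 50% growth inhibition is given as GI50. TGI: total growth inhibition.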

What was measured:
Experiment in all cases: NCI-60 cell line screen, 48 h
CAKI-1 renal = test system: CAKI-1 renal
COLO 205 colon = test system: COLO 205 colon
HL-60(TB) leukemia = test system: HL-60(TB) leukemia
HOP-62 NSCLC = test system: HOP-62 NSCLC
HOP-92 NSCLC = test system: HOP-92 NSCLC
IGROV1 ovarian = test system: IGROV1 ovarian
NCI-H460 lung = test system: NCI-H460 lung
PC-3 prostate = test system: PC-3 prostate
RPMI-8226 leukemia = test system: RPMI-8226 leukemia
SF-539 CNS = test system: SF-539 CNS

Structure (SMILES)	GI50 (CAKI-1 renal) [µM]	TGI (CAKI-1 renal) [µM]	GI50 (COLO 205 colon) [µM]	TGI (COLO 205 colon) [µM]	GI50 (HL-60(TB) leukemia) [µM]	TGI (HL-60(TB) leukemia) [µM]	GI50 (HOP-62 NSCLC) [µM]	TGI (HOP-62 NSCLC) [µM]	GI50 (HOP-92 NSCLC) [µM]	TGI (HOP-92 NSCLC) [µM]	GI50 (IGROV1 ovarian) [µM]	TGI (IGROV1 ovarian) [µM]	GI50 (NCI-H460 lung) [µM]	TGI (NCI-H460 lung) [µM]	GI50 (PC-3 prostate) [µM]	TGI (PC-3 prostate) [µM]	GI50 (RPMI-8226 leukemia) [µM]	TGI (RPMI-8226 leukemia) [µM]	GI50 (SF-539 CNS) [µM]	TGI (SF-539 CNS) [µM]
Cc1nc2ccccc2c(/C=C/c2ccc(Cl)cc2)c1C(=O)/C=C/c1ccc(C(F)(F)F)cc1	0.386	1.52	1.32	3.25	0.36	1.38	0.877	2.31	1.07	2.47	0.282	1.56	0.642	1.89	0.537	2.18	0.269	0.681	0.24	0.636
O=C(NCCCO)c1cc(Cl)ccc1O	6.11	24.6	1.95	5.85	2.22	6.35	3.86	13.4	0.468	3.37	3.94	17	2.78	11.1	2.06	10.2	0.704	2.68	4.85	17.5
CN(Cc1ccccc1)c1ccc(CO)c(Cl)c1	2.93	50.9	7.19	22.5	17.4	80	6.41	> 58.6	3.9	37.4	0.467	3.01	1.72	14.6	28.6	> 100	15.4	> 96.2	61.3	> 100
O=C(c1ccccc1)C(CN1CCCCC1)c1ccccc1 (stereo not drawn)	1.08	2.45	1.57	3.14	1.42	3.86	2.03	5.9	1.16	3.88	1.5	3.34	10.2	26.1	1.69	3.83	0.539	2.88	1.96	3.94
Cc1cc(Cc2cc(C)c(NC(=O)C(=O)C3CCC4=C(SC5C=CC=CC5N4)C3=O)c(C(C)C)c2)cc(C(C)C)c1NC(=O)C(=O)C1CCC2=C(SC3C=CC=CC3N2)C1=O (stereo not drawn)		> 100		> 100		> 100		> 100		> 100		> 100		> 100		90.9		> 100		> 100
c1ccc(CN2COc3c(ccc4c3OCN(Cc3ccccc3)C4)C2)cc1	0.22		1.96	> 42	2.33	7.52	0.545	> 100	1.18	> 100	0.802	> 100	0.399	> 100	0.579	> 100	1.41	> 100	1.45	6.41
C=CC(=O)Nc1cc(C)ccc1Nc1nc(Nc2cc(OC)ncc2C)ncc1C(F)(F)F	0.514	1.84	0.0555	1.48	0.637	3.7	0.741	> 66.7	0.188	0.981	0.244	1.25	2.13	11.4	2.18	> 100	0.634	> 25.3	0.344	1.63
CCN(CC)CCCNCc1cc(-c2ccccc2)nc2ccccc12	19.5	> 100	15.8	31.3	1.62	14.9	8.27	> 100	2.34	9.41	23.1	> 100	33.2	> 100	11.2	> 100	2.53	16.5	3.24	8.49
O=c1cc(-c2cccc3c2Sc2ccccc2S3)oc(N2CCOCC2)c1	5.3	18.9	11.5	26.3	11.6	32.3	10.9	23	6.91	21.9	4.08	17.7	12.7	31.2	6.26	20.9	9.83	43.4	11.6	25.1
CCOC(=O)C1c2[nH]c3ccccc3c2CCN1C(=O)c1ccc(OC)o1 (stereo not drawn)		> 10		> 10		> 10		> 10		> 10		> 10		> 10		> 10		> 10		> 10
O=C(Nc1ccncc1)C(=O)c1cn(S(=O)(=O)c2ccc(Cl)cc2)c2ccccc12	1.86	> 100	> 61.5	> 100	0.401		1.73	22	1.12	19.9	3.29	> 100	11.5	> 100	1.4	> 55.5	1.44	> 100	0.696	12.5
N=c1ccn(O)cc1/C=C1/C(=O)Nc2ccccc21	> 100	> 100	> 100	> 100	> 100	> 100	> 100	> 100	> 100	> 100	> 100	> 100	> 100	> 100	> 100	> 100	> 100	> 100	> 100	> 100
